Measured values from patent publication US20110212100A1, “METHODS FOR MODULATING DEVELOPMENT AND EXPANSION OF IL-17 EXPRESSING CELLS” (priority 2007, published 2011).
Where “and” joins values, the source holds several entries; their conditions need not be identical. Equal entries are not always repeated.

Assays:
[1] = tested on: FoxP3 expression in CD4+ CD25− T cells; assay: Foxp3 (Treg marker) expression in TGFβ/IL-6 treated T cells; format: cell-based, mouse
Method: Low doses of halofuginone (HF) were tested to determine the ability of HF to enhance Treg differentiation, while suppressing Th17 differentiation. Nave. CD4+ T cells (CD4+ CD25−) were isolated from the spleen and peripheral lymph nodes of C57B/6 mice. T cells were then activated using anti-CD3 (0.3 μg/ml) and anti-CD28 (0.5 μg/ml) antibodies either in media alone (row 1, 4), TGFβ alone (3 ng/ml—row 2, 5) or TGFβ (3 ng/ml) plus IL-6 (30 ng/ml) (row 3, 6). […] T cells were cultured for 3 days and CD25 and Foxp3 expression (Treg marker genes) was determine by FACS staining and flow cytometric analyses. Simultaneously, T cells were harvested and re-stimulated for 4 hours using phorbol myristic acetate (PMA; 10 nM), Ionomycin (1 μM) and cytokine secretion was prevented using brefeldin A (20 μg/ml). Following stimulation, the production of IL-17 and IFNγ were determined by intracellular staining and analyzed via flow cytometry. […]
FACS analyses and sorting: All cell surface staining was performed in FACS buffer (PBS/2% FCS/0.1% NaN3) and antibodies were incubated with cells on ice for 20-30 minutes. […] All FACS data was acquired on a FACSCalibur flow cytometer (BD Pharmingen) and analyzed using FlowJo software (Treestar, Inc., Ashland, Oreg.). […]

[2] = tested on: anti-CD3 activated human peripheral blood T cells; conditions: cited from earlier work
TSK mouse = conditions: 1 μg HF/mouse IP daily (McGaha et al.); cited from earlier work

O=C(CC1NCCCC1O)Cn1cnc2cc(Br)c(Cl)cc2c1=O (racemic) [HF, 7-bromo-6-chloro-3-[3-(3-hydroxy-2-piperidinyl)-2-oxopropyl]-4(3H)-quinazolinone]
Foxp3 expression of T cells differentiated in the presence of HF, in words ([1]; 10 nM HF, TGFβ plus IL-6, day 3): enhanced Foxp3 expression
concentration increasing FoxP3 expression concomitantly with inhibiting IL-17 expression ([1]; TGFβ/IL-6 treated T-cells): 2.5 to 10 nM and 2.2 to 10 nM
NFkB activation and T-cell secretion of cytokines, in words ([2]; 80 nM HF, crude preparation of primary T-cells (Leiba et al.)): broadly suppress NFkB activation and T-cell secretion of cytokines
IC50 ([2]; Lieba et al., read-out: concentration for 50% inhibition of cytokine secretion, NF-kB activation and p38 phosphorylation): 20 to 40 nM
skin thickness in TSK model, in words (TSK mouse): reduced skin thickness of a TSK mouse to that of a normal mouse
toxic effects in TSK model, in words (TSK mouse): no toxic effects
